{"source": "paper PMC4206604", "about": "(Journal of pharmaceutical sciences, 2014)", "origin": "cited, not measured here", "molecular_target": "T1, NTCP (Homo sapiens, UniProt Q14973)", "T1 sequence (Q14973 1-349)": "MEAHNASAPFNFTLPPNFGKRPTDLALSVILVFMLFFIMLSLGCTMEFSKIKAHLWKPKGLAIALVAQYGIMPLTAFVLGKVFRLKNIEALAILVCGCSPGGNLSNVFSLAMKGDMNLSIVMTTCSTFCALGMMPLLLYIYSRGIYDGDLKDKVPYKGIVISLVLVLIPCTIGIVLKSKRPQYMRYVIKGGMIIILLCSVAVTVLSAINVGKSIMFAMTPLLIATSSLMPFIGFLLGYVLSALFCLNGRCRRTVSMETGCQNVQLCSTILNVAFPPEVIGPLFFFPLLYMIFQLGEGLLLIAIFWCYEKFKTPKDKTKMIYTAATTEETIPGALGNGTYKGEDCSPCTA", "settings": "read-out: NTCP Km; same cell line", "data": [{"smiles": "C[C@H](CCC(=O)NCCS(=O)(=O)O)[C@H]1CC[C@H]2[C@@H]3[C@H](O)C[C@@H]4C[C@H](O)CC[C@]4(C)[C@H]3C[C@H](O)[C@]12C", "note": "[taurocholate]", "values": [{"measurement": "Km", "result": 5.31, "unit": "µM"}]}]}
